Test results reported in US11331337B2, “Heparin and heparan sulphate oligosaccharides” (Agency for Science, Technology and Research, priority 2017, dated 2022).

What was measured:
BMP-2 = target: T1, BMP-2 (Homo sapiens, UniProt P12643); assay: Surface plasmon resonance BMP-2 competitive binding assay; details: 10 μg/mL pre-incubated with BMP-2 25 nM, applied to heparin-coated SPR chip
T1 construct: purchased R&D Systems Inc. (U.S.A.)
T1 sequence (P12643 283-396): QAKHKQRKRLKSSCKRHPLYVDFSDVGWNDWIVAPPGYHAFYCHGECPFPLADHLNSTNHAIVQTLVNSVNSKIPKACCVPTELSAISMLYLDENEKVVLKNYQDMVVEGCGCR
Experimental: Briefly, 20 mg heparin was biotinylated at free amine groups using 8.6 μM NHS-biotin in dimethyl sulfoxide, after which excess unreacted NHS-biotin was removed by passing the sample through two 7 kDa molecular weight cut-off Zeba spin desalting columns. […] Heparin oligosaccharides were used at a concentration of 10 μg/mL in HBS-EP 0.1% buffer (HBS-EP with 0.1% (v/v) Tween-20). […] The response was measured as a function of time at 25° C. R.U.s for the heparin surface were determined by subtracting the R.U. of the control (uncoated) flow channel from those of the heparin-biotin-coated flow channel. Representative sensorgrams from all competitive binding experiments may be found in supplementary information (FIG. 1). […] Data constitutes the mean±S.D. of three independent experiments.

C2C12 cells = assay: Alkaline phosphatase (ALP) activity assay in C2C12 cells; type: cell-based, murine; details: with BMP-2 100 ng/mL, 5 μg/mL, 3 days
Experimental: C2C12 cells were maintained as described above and seeded at 2×10^4 cells/cm2 in tissue culture treated 24-well plates. The cells were cultured in treatment media for 3 days, after which total protein was extracted and ALP activity was determined. Briefly, cells were washed with PBS and total protein extracted with RIPA buffer containing a protease inhibitor cocktail. Total protein concentration was determined using the BCA assay, then 7.5 μg of total protein per condition was combined with p-nitrophenylphosphate (Thermo-Fisher). […] Data represents mean±S.D. of three independent experiments.

percentage of BMP-2 sequestered in solution (reduction in response units vs. BMP-2 alone) (BMP-2): able to bind BMP-2 with high affinity
Substance: dextran sulfate
BMP-2-induced ALP activity (C2C12 cells): inhibited BMP-2 bioactivity in vitro
